From patent US4920128A, “Pyrazolo[3,4-b]quinolines and their use as antiviral agents” (Sterling Drug Inc., priority 1988, dated 1990) come the findings set out here.

The test system of experiment [1] is herpes simplex virus type 2 (HSV-2). In words: HSV-2 plaque-reduction on mouse embryo fibroblast monolayers. In kind it is cell-based. As to conditions: concentration which inhibited the number of plaques by 50%, interpolated, HSV-2 (Curtis strain), ~80 pfu, 2 days at 37° C.; for IC50: Human alphaherpesvirus 2, Fibroblast, 48 h, read-out: MIC. The protocol: The activity of the compounds of the invention against herpes simplex virus type 2 (HSV-2) was determined by measuring plaque-reduction activity on mouse embryo fibroblast monolayers. Two-day-old monolayers of Balb/c or ICR mouse embryo fibroblasts (MEF) were infected with approximately 80 pfu (plaque forming units) of HSV-2 (Curtis strain) in the presence of various concentrations of the test compounds. After a 1 hour absorption period at 37° C. and 2% CO2, the inoculum was removed and an overlay containing equal parts of 2X MS medium supplemented with 10% fetal calf serum (FSC) and 1% molten Seakem agarose was added to cell monolayers. Both the inocula and the overlay mixtures contained 1:200 dilutions of the test compound made from stock dilutions in dimethylsulfoxide. After incubation at 37° C. and 2% CO2 for 2 days, the monolayers were fixed with 5% glutaraldehyde and stained with 0.25% aqueous crystal violet. The plaques were quantitated by visual inspection. The minimum inhibitory concentration (MIC) for a compound was defined as the concentration in micrograms per milliliter (μg/ml) which inhibited the number of plaques by 50%. The MIC was calculated by interpolation.

For experiment [2], the system named is phenylephrine-contracted aortic ring preparation. Description: vasodilator activity in phenylephrine-contracted aortic ring preparation from the spontaneously hypertensive rat (SHR). As to conditions: 50% of maximal relaxation induced by papaverine (200 μM), contracted with 1 μM phenylephrine. How it is done: Aortic ring preparations from SHR are suspended in buffered physiological saline and induced to contract by addition of 1 μM phenylephrine, a selective α1 -adrenergic agonist. When a sustained contraction is obtained, the test compound is added cumulatively in ascending concentrations beginning at 1 μM. At the end of the addition of the test compound, a 200 μM concentration of papaverine is added to the organ bath for induction of a 100% vasodilator response. Percent relaxation by the test compound is expressed as a percent of maximal relaxation induced by papaverine. […] By this procedure, EC50 values for certain compounds of the invention were determined with the following results: […]

In brackets after ≈: the same amount, converted by molar mass.

In general, EC50 refers to the concentration giving half of the maximal effect.

“7-Methoxy-1-methyl-1H-pyrazolo[3,4-b]quinoline-3-methanamine [Example 34]” registered an MIC in experiment [1] of 15 µg/mL.
In the case of `COc1ccc2nc3[nH]nc(N)c3cc2c1` [1(d), 6-Methoxy-1H-pyrazolo[3,4-b]quinolin-3-amine], the IC50 in experiment [1] is 1.5 µg/mL (≈ 7 µM). The compound also showed a concentration for a half-maximal effect (EC50) in experiment [2] of 31 µM.
Turning to `Nc1n[nH]c2nc3ccccc3cc12` [2(d), 1H-Pyrazolo[3,4-b]quinolin-3-amine], the EC50 in experiment [2] was determined as 26 µM.
`COc1ccc2cc3c(N)n[nH]c3nc2c1` [3(d), 7-Methoxy-1H-pyrazolo[3,4-b]quinolin-3-amine]: the IC50 in experiment [1] worked out at 4.3 µg/mL (≈ 20.1 µM). The compound further had a concentration giving a half-maximal response (EC50) in experiment [2] of 21 µM.
Compound `COc1cc2cc3c(N)n[nH]c3nc2cc1OC` [4(d), 6,7-Dimethoxy-1H-pyrazolo[3,4-b]quinolin-3-amine] yielded a 50% effective concentration (EC50) in experiment [2] of 18 µM.
For `CCOc1ccc2cc3c(N)n[nH]c3nc2c1` [5(d), 7-Ethoxy-1H-pyrazolo[3,4-b]quinolin-3-amine], in experiment [1], the IC50 was 17 µg/mL (≈ 74.5 µM).
Still for that read-out and setting: next, `COc1cccc2nc3[nH]nc(N)c3cc12` [6(d), 5-Methoxy-1H-pyrazolo[3,4-b]quinolin-3-amine]: 13 µg/mL (≈ 60.7 µM).
Regarding `COc1ccc2cc3c(N)nn(C)c3nc2c1` [Example 7, 7-Methoxy-1-methyl-1H-pyrazolo[3,4-b]quinolin-3-amine], the IC50 in experiment [1] is 6.4 µg/mL (≈ 28 µM). The EC50 in experiment [2] was determined as 43 µM.
Consider `CCCn1nc(N)c2cc3ccc(OC)cc3nc21` [Example 9, 7-Methoxy-1H-1-propylpyrazolo[3,4-b]quinolin-3-amine], for which, in experiment [1], the IC50 came out at 5.3 µg/mL (≈ 20.7 µM).
For `CCn1nc(N)c2cc3ccc(OC)cc3nc21` [Example 10, 1-Ethyl-7-methoxy-1H-pyrazolo[3,4-b]quinolin-3-amine], the IC50 in experiment [1] came out at 7.8 µg/mL (≈ 32.2 µM).
For the compound `COc1ccc2cc3c(N)nn(-c4ccccc4)c3nc2c1` [Example 11, 7-Methoxy-1-phenyl-1H-pyrazolo[3,4-b]quinolin-3-amine], the IC50 in experiment [1] worked out at 19 µg/mL (≈ 65.4 µM).
Take `Cn1nc(N)c2cc3ccc(O)cc3nc21` [Example 12, 3-Amino-1-methyl-1H-pyrazolo[3,4-b]quinolin-7-ol]: the EC50 in experiment [2] is 57 µM.
As for `Nc1n[nH]c2nc3cc(O)ccc3cc12` [Example 13, 3-Amino-1H-pyrazolo[3,4-b]quinolin-7-ol], the IC50 in experiment [1] came to 13 µg/mL (≈ 64.9 µM). The response in experiment [2] was half-maximal at 87 µM (EC50).
With `Nc1n[nH]c2nc3ccc(O)cc3cc12` [Example 14, 3-Amino-1H-pyrazolo[3,4-b]quinolin-6-ol], a half-maximal response in experiment [2] (EC50) required 25 µM.
For `COc1ccc2cc3c(N)nn(CCN4CCOCC4)c3nc2c1` [Example 15, 7-Methoxy-1-[2-(4-morpholinyl)ethyl]-1H-pyrazolo[3,4-b]quinolin-3-amine], the IC50 in experiment [1] was 44 µg/mL (≈ 134 µM).
In turn, `CCN(CC)CCn1nc(N)c2cc3cc(OC)ccc3nc21` [Example 16, 1-[2-(Diethylamino)ethyl]-6-methoxy-1H-pyrazolo[3,4-b]quinolin-3-amine] displayed an EC50 in experiment [2] of 40 µM.
Consider `COc1ccc2nc3c(cc2c1)c(N)nn3CCCN(C)C` [Example 17, 1-[3-(Dimethylamino)propyl]-6-methoxy-1H-pyrazolo[3,4-b]quinolin-3-amine], for which the IC50 in experiment [1] stood at 78 µg/mL (≈ 261 µM). For the same compound, in experiment [2], a half-maximal effect (EC50) was put at 91 µM.
As for `COc1ccc2cc3c(N)nn(CCN(C)C)c3nc2c1` [Example 18, 1-[2-(Dimethylamino)ethyl]-7-methoxy-1H-pyrazolo[3,4-b]quinolin-3-amine], the IC50 in experiment [1] was found to be 12 µg/mL (≈ 42.1 µM). This compound came in with an EC50 in experiment [2] of 25 µM.
Regarding `CCOC(=O)Cn1nc(N)c2cc3ccc(OC)cc3nc21` [Example 19, Ethyl 3-amino-7-methoxy-1H-pyrazolo[3,4-b]quinolin-1-acetate], the IC50 in experiment [1] came out at 12 µg/mL (≈ 40 µM). The same compound came in with an EC50 in experiment [2] of 71 µM.
For `COc1ccc2nc3c(cc2c1)c(N)nn3CCN(C)C` [Example 21, 1-[2-(Dimethylamino)ethyl]-6-methoxy-1H-pyrazolo[3,4-b]quinolin-3-amine] the same measures were 24 µg/mL (≈ 84.1 µM) and 38 µM.
As for `CCN(CC)CCn1nc(N)c2cc3ccc(OC)cc3nc21` [Example 22, 1-[2-(Diethylamino)ethyl]-7-methoxy-1H-pyrazolo[3,4-b]quinolin-3-amine], the IC50 in experiment [1] was 23 µg/mL (≈ 73.4 µM). Besides, the EC50 in experiment [2] is 22 µM.
Take `CCN(CC)CCn1nc(N)c2cc3ccc(O)cc3nc21` [Example 23]: the IC50 in experiment [1] was 39 µg/mL (≈ 130 µM). In addition, the midpoint of the response in experiment [2], the EC50, lay at 33 µM.
Regarding `CN(C)CCn1nc(N)c2cc3ccc(O)cc3nc21` [Example 24, 3-Amino-1-[2-(dimethylamino)ethyl]-1H-pyrazolo[3,4-b]quinolin-7-ol], the IC50 in experiment [1] turned out to be 13 µg/mL (≈ 47.9 µM).
Turning to `COc1ccc2nc3c(cc2c1)c(N)nn3CC(=O)N(C)C` [Example 25, 3-Amino-6-methoxy-N,N-dimethyl-1H-pyrazolo[3,4-b]quinolin-1-acetamide], a half-maximal response in experiment [2] (EC50) required 116 µM.
Take `CNCCn1nc(N)c2cc3cc(OC)ccc3nc21` [Example 27, 1-[2-(Methylamino)ethyl]-6-methoxy-1H-pyrazolo[3,4-b]quinolin-3-amine]: the IC50 in experiment [1] amounted to 13 µg/mL (≈ 47.9 µM).
In experiment [2], `CCNC(=O)Cn1nc(N)c2cc3ccc(OC)cc3nc21` [Example 28, 3-Amino-7-methoxy-N-ethyl-1H-pyrazolo[3,4-b]quinolin-1-acetamide] came in with an EC50 of 70 µM.
`CCNCCn1nc(N)c2cc3ccc(OC)cc3nc21` [Example 29, 1-[2-(Ethylamino)ethyl]-7-methoxy-1H-pyrazolo[3,4-b]quinolin-3-amine]: the IC50 in experiment [1] stood at 6.7 µg/mL (≈ 23.5 µM).
On the same count and under the same terms, the result for `COc1ccc2cc3c(N)nn(CN(C)C)c3nc2c1` [Example 30, 1-[(Dimethylamino)methyl]-7-methoxy-1H-pyrazolo[3,4-b]quinolin-3-amine] reads 2.6 µg/mL (≈ 9.58 µM); that for `COc1ccc2nc3c(cc2c1)c(Cl)nn3C` [Example 31, 3-Chloro-6-methoxy-1-methyl-1H-pyrazolo[3,4-b]quinoline], 18 µg/mL (≈ 72.7 µM).
For `COc1ccc2nc3c(cc2c1)c(C#N)nn3C` [Example 33, 6-Methoxy-1-methyl-1H-pyrazolo[3,4-b]quinoline-3-carbonitrile], in experiment [1], the IC50 was 42 µg/mL (≈ 176 µM).
For the compound `COc1ccc2nc3c(cc2c1)c(C(N)=O)nn3C` [Example 35, 6-Methoxy-1-methyl-1H-pyrazolo[3,4-b]quinoline-3-carboxamide], the IC50 in experiment [1] is 7 µg/mL (≈ 27.3 µM). The same compound returned an EC50 in experiment [2] of 9 µM.
As to `COc1ccc2nc3c(cc2c1)c(Br)nn3CCN(C)C` [Example 36, 3-Bromo-1-[2-(dimethylamino)ethyl]-6-methoxy-1H-pyrazolo[3,4-b]quinoline], the IC50 in experiment [1] was determined as 4.3 µg/mL (≈ 12.3 µM).
On to `COc1ccc2cc3c(Br)nn(CCN(C)C)c3nc2c1` [Example 37, 3-Bromo-1-[2-(dimethylamino)ethyl]-7-methoxy-1H-pyrazolo[3,4-b]quinoline], for which, in experiment [1], the IC50 was determined as 0.97 µg/mL (≈ 2.78 µM).
`COc1ccc2cc3c(C#N)nn(CCN(C)C)c3nc2c1` [Example 38, 1[2-(Dimethylamino)ethyl]-7-methoxy-1H-pyrazolo[3,4-b]quinoline-3-carbonitrile]: the IC50 in experiment [1] is 0.82 µg/mL (≈ 2.78 µM).
As to `COC(=O)c1nn(CCN(C)C)c2nc3cc(OC)ccc3cc12` [Example 39, Methyl 1-[2-(dimethylamino)ethyl]-7-methoxy-1H-pyrazolo[3,4-b]quinoline-3-carboxylate], in experiment [1], the IC50 stood at 2.3 µg/mL (≈ 7 µM).
Regarding `COc1ccc2cc3c(Cl)nn(CCN(C)C)c3nc2c1` [Example 40, 3-Chloro-1-(2-dimethylaminoethyl)-7-methoxy-1H-pyrazolo[3,4-b]quinoline], the IC50 in experiment [1] is 0.67 µg/mL (≈ 2.2 µM).
Take `CNCCn1nc(Br)c2cc3ccc(OC)cc3nc21` [Example 41, 3-Bromo-7-methoxy-1-(2-methylaminoethyl)-1H-pyrazolo[3,4-b]quinoline]: the IC50 in experiment [1] is 0.72 µg/mL (≈ 2.15 µM).
Still for that read-out and setting: next, `COc1ccc2cc3c(N)nn(CC(C)N(C)C)c3nc2c1` (stereo not drawn) [Example 44a, 1-[2-(dimethylamino)-2-methylethyl]-7-methoxy-1H-pyrazolo[3,4-b]quinolin-3-amine]: 11 µg/mL (≈ 36.7 µM).
Regarding `COc1ccc2cc3c(Cl)nn(CC(C)N(C)C)c3nc2c1` (stereo not drawn) [Example 45, 3-Chloro-1-[2-(dimethylamino)-2-methylethyl]-7-methoxy-1H-pyrazolo[3,4-b]quinoline], the IC50 in experiment [1] was 0.88 µg/mL (≈ 2.76 µM).
`CNC(C)Cn1nc(Cl)c2cc3ccc(OC)cc3nc21` (stereo not drawn) [Example 46, 3-Chloro-1-[2-(methylamino)-2-methylethyl]-7-methoxy-1H-pyrazolo[3,4-b]quinoline]: the IC50 in experiment [1] worked out at 3.7 µg/mL (≈ 12.1 µM).
